Reference: US20090312411A1, “PREVENTING OR REDUCING RISK OF MISCARRIAGES” (New York Society for the Raptured and Crippled Maintaining …, priority 2008, published 2009)

Assays:
CBA/J×DBA/2 mice [1] = test: Fetal resorption frequency in CBA/J×DBA/2 matings (non aPL-dependent recurrent miscarriage); format: in vivo, mouse; details: day 15 of pregnancy, FIG. 7, 15A, 17A
Description: Protocol. DBA/2-mated female CBA/J mice (CBA/J×DBA/2) are a well-studied model of immunologically mediated pregnancy loss that shares features with human recurrent miscarriage (Clark, D A et al., 1998, J. Immunol. 160:545-549; Blois, M. et al., 2005, J. Immunol. 174:1820-1829). Embryonic lethality in DBA/2-mated female CBA/J mice is believed to represent rejection of the semiallogeneic placenta by maternal-derived activated effectors. 8-10-wk-old virgin female CBA/J mice were mated with 8-14-wk-old CBA/J, BALB/c, or DBA/2 males. Females were inspected daily for vaginal plugs, and presence of a vaginal plug was designated as day 0 of pregnancy. A group of DBA/2- and BALB/c mated CBA/J females were treated with pravastatin (0.2 μg/g bw=5 μg/mouse, i.p) on days 5, 6 and 7 of pregnancy. […] Pregnant females were euthanized on day 15 and fetal resorption frequency was calculated.
Animals. Inbred CBA/J (H-2k), DBA/2 (H-2d) and BALB/c (H-2d) mice from The Jackson Laboratory were used. 8-10-wk-old virgin female CBA/J mice were mated with 8-14-wk-old BALB/c, or DBA/2 males. […] The frequency of fetal resorption was calculated on day 15 as previously described (Girardi et al., 2006, J Exp Med 203:2165-2175). Fetal weights were also determined. […]
(§1) Protocol. […] Nitric oxide (NO) was measured by a calorimetric method (R&D Systems). Plasma sVEGFR-1 was measured with a commercial ELISA kit (R&D Systems).

CBA/J×DBA/2 mice [2] = test: Fetal weight / IUGR in CBA/J×DBA/2 matings; format: in vivo, mouse; details: day 15 of pregnancy, FIG. 10, 15B, 17B
Experimental: Protocol. 8-10-wk-old virgin female CBA/J mice were mated with 8-14-wk-old CBA/J, BALB/c, or DBA/2 males. Females were inspected daily for vaginal plugs, and presence of a vaginal plug was designated as day 0 of pregnancy. Pregnant mice were treated with pravastatin (0.2 μg/g bw=5 μg/mouse, i.p 18 hours prior to aPL or NHIgG injections on days 8 and 12). Pravastatin (Sigma Chemical, St Louis, Mo.) was dissolved in EtOH at a concentration of 10 mg/mL and diluted with NaCl 0.9% in a ratio of 1:1000 to yield a final concentration of 10 μg pravastatin per 1 mL carrier. The NaCl 0.9%-based carrier solution for the placebo group was prepared accordingly to include EtOH only (i.e., without pravastatin) at a concentration of 1:1000. Pregnant females were euthanized on day 15 and weights of fetuses were determined.
Animals. Inbred CBA/J (H-2k), DBA/2 (H-2d) and BALB/c (H-2d) mice from The Jackson Laboratory were used. 8-10-wk-old virgin female CBA/J mice were mated with 8-14-wk-old BALB/c, or DBA/2 males. Pregnant females were sacrificed at day 7 and at day 15. The frequency of fetal resorption was calculated on day 15 as previously described (Girardi et al., 2006, J Exp Med 203:2165-2175). Fetal weights were also determined. […]
as §1

CBA/J×DBA/2 mice [3] = test: Litter size at birth in CBA/J×DBA/2 matings; format: in vivo, mouse; details: CBA/J×DBA/2 mice followed until delivery; FIG. 15C, 17C
Experimental: Measuring Thrombin-Anti-Thrombin Complexes. Thrombin anti thrombin III complex (TAT) was measured using a commercial ELISA kit (Enzygnost TAT; Dade Behring). Some mice from each experimental group were studied until delivery and the litter sizes were recorded at birth.

[4] = test system: Isoprostane 8-iso-prostaglandin F2a (STAT-8); test: Placental STAT-8 (8-isoprostane) EIA, oxidative stress marker; format: in vivo, mouse; details: CBA/J×DBA/2 mice, day 15 placentas, FIG. 16A
Experimental: STAT-8 Measurements. Isoprostane 8-iso-prostaglandin F2a (STAT-8) was measured as a marker for oxidative stress. Placental tissue was harvested at day 15 of pregnancy and homogenized in 9 volumes of 0.1 M Tris pH 7.4 containing 1 mM EDTA and 10 μM indomethacin and stored at −80° C. in the presence of 0.005% BHT before assayed for free 8-isoprostane using a STAT-8-Isoprostane EIA kit (Cayman Chemical Company, Ann Arbor, Mich.).

monocytes = test: sFlt-1 release by monocytes in vitro (ELISA); format: cell-based, mouse; details: 10 nM C5a for 4 h; pravastatin 5 μg/ml for 3 hours prior to C5a
Experimental: Protocol. Mice with a selective deletion of the TF gene in myeloid cells (TF^floxed/floxed/LysM-Cre mice) (Redecha et al., supra), were used for isolation of monocytes to study sVEGFR-1 production in vitro. Blockade of TF was carried out as in Example 17 by i.p. injections of anti-mTF antibody 1H1.
Protocol. Splenocytes were prepared from non pregnant CBA/J female mice and incubated for 4 h in culture medium supplemented with 10% inactivated fetal bovine serum (FBS). Non adherent cells were removed and adherent cells (>95% peroxidase-positive) were incubated in culture medium with the addition of 10 nM mouse recombinant C5a. A group of adherent monocytes was treated for 3 hours with pravastatin (5 μg/ml) prior to incubation with C5a. After 4 h of incubation with C5a, culture supernatants were collected and analyzed for sVEGFR-1 by ELISA (R&D Systems).

sFlt-1 = test: Plasma sFlt-1 (sVEGFR-1) ELISA in CBA/J×DBA/2 mice; format: in vivo, mouse; details: day 7 of pregnancy
Experimental: Protocol. To determine the effect of pravastatin treatment on pregnancy loss and oxidative stress, group of mice was treated with pravastatin (Sigma Chemicals, St Louis, Mo.; 5 μg/mouse, IP) from day 4 to 15 of pregnancy. Pravastatin was directly dissolved in sterile PBS. Blood samples were obtained from pregnant females from days 1 to 15 of pregnancy from the submandibular vein. Nitric oxide (NO) was measured by a […] method (R&D Systems). Plasma sVEGFR-1 was measured with a commercial ELISA kit (R&D Systems).

TF = TF expression on peripheral blood monocytes, 2-color FACS; format: in vivo, mouse; details: CBA/J×DBA/2 mice, FIG. 17G
Experimental: Determining TF Expression. TF expression on peripheral blood monocytes was analyzed by 2-color fluorescence-activated cell sorting (FACS). Heparinized whole blood obtained at day 7 from DBA/2 or BALB/c mated CBA/J females was stained with fluorescein isothiocyanate (FITC)-labeled anti-mouse F4/80 for FL1 (BD Biosciences Pharmingen) to identify monocytes and biotinylated rat anti-mTF antibody 1H1 and streptavidin-PerCP (BD Biosciences Pharmingen) as the FL3 fluorochrome. Red cells were lysed with ACK buffer (Redecha et al., supra). Preparations were then incubated with SA-PerCP and analyzed by FACS using a FACscan (BD Biosciences Pharmingen).

Molecule | fetal resorption / fetal loss (CBA/J×DBA/2 mice [1]) | IUGR / growth restriction (fetal weight) (CBA/J×DBA/2 mice [2]) | litter size at birth (CBA/J×DBA/2 mice [3]) | placental STAT-8 increase [4] | sFlt-1 released by monocytes (monocytes) | plasma sFlt-1 levels (sFlt-1) | % TF positive monocytes (TF)
hirudin | prevented fetal resorptions | prevented fetal resorptions and growth restriction | increasing the litter size | prevented STAT-8 increase |  |  | 
CC[C@H](C)C(=O)O[C@H]1C[C@H](O)C=C2C=C[C@H](C)[C@H](CC[C@@H](O)C[C@@H](O)CC(=O)O)[C@H]21 [pravastatin] |  |  |  |  | 387 ± 78 pg/mL | 18650 ± 5680 pg/mL | 10±4%
